Experimental data as given in PubChem BioAssay (NCI).
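Step 1: Grow cells in 96-well plates. Step 2: Expose to compound for 48 hours at 5 concentrations. Step 3: Interpolate endpoints linearly; if unreached, use highest concentration. GI50 is the concentration that inhibits growth by half. At the TGI there is no net growth.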

Legend:
Assay in all cases: DTP human tumour cell line panel, 48 h
NCI-H460 lung = test system: NCI-H460 lung
SW-620 colon = test system: SW-620 colon
HT29 colon = test system: HT29 colon
ACHN renal = test system: ACHN renal
NCI-H23 lung = test system: NCI-H23 lung
K-562 leukemia = test system: K-562 leukemia
NCI-H226 lung = test system: NCI-H226 lung
TK-10 renal = test system: TK-10 renal
KM12 colon = test system: KM12 colon
MCF7 breast = test system: MCF7 breast

| Compound | TGI (NCI-H460 lung) [µM] | TGI (SW-620 colon) [µM] | TGI (HT29 colon) [µM] | TGI (ACHN renal) [µM] | TGI (NCI-H23 lung) [µM] | TGI (K-562 leukemia) [µM] | TGI (NCI-H226 lung) [µM] | TGI (TK-10 renal) [µM] | TGI (KM12 colon) [µM] | GI50 (NCI-H460 lung) [µM] | GI50 (SW-620 colon) [µM] | GI50 (HT29 colon) [µM] | GI50 (ACHN renal) [µM] | GI50 (NCI-H23 lung) [µM] | GI50 (K-562 leukemia) [µM] | GI50 (MCF7 breast) [µM] | TGI (MCF7 breast) [µM] | GI50 (NCI-H226 lung) [µM] | GI50 (TK-10 renal) [µM] | GI50 (KM12 colon) [µM] |
| --- | --- | --- | --- | --- | --- | --- | --- | --- | --- | --- | --- | --- | --- | --- | --- | --- | --- | --- | --- | --- |
| COc1ccc(C(=O)O/N=C2/CCC/C2=C\c2ccccc2)cc1 | > 100 | > 100 | > 100 | > 100 | > 100 | > 100 | > 100 | > 100 | > 100 |  |  |  |  |  |  |  |  |  |  |  |
| C[n+]1c(N)n(C(=O)OCc2ccccc2)c(=O)c2c1ncn2C(=O)OCc1ccccc1 | > 100 | > 100 | > 100 | > 100 | > 100 | > 100 | 59.8 | > 100 | > 100 |  |  |  |  |  |  |  |  |  |  |  |
| C#CCN(Cc1nc2cc(C(F)(F)F)ccc2nc1-c1ccccc1)c1ccc(F)c(F)c1 | > 100 | > 100 | > 100 | > 100 | > 100 | > 100 | > 100 | > 100 |  | 26.5 | 36 | 41.1 | 78.3 | 94.3 | 39.4 | 26 | > 100 | 92.5 | > 100 |  |
| CCCn1c(N)c(C(=O)CNc2ccc(I)cc2)c(=O)[nH]c1=O | > 100 | > 100 | > 100 | > 100 | > 100 | > 100 | > 100 | > 100 |  | 0.393 | 2.89 | 1.23 | 8.69 | > 61.4 |  | 0.806 | > 100 | 12.9 | 16.7 |  |
| COc1ccc(-c2c(N)n[nH]c2-c2cc(OC)c(OC)c(OC)c2)cc1 | 17.2 | > 100 | 3.29 | > 100 | 43.7 | > 100 | > 100 |  | 18 | 0.0993 | 0.0587 | 0.247 | 2.03 | 0.25 | 0.043 | 0.0732 | > 100 | 0.644 |  | 0.0594 |
| CC1=C(C(=O)Nc2ccccc2)C(c2ccc(C(C)C)cc2)C(C(=O)Nc2ccccc2)=C(C)N1 | 55.4 | 41.5 | 29.9 | > 66.9 | > 58.5 | 54.9 | 54.9 | > 100 | 77.8 |  |  |  |  |  |  |  |  |  |  |  |
| Nc1nc(N)c(-c2ccccc2)c(CCC(=O)Nc2ccc(Cl)cc2)n1 | > 100 | > 100 | > 100 | > 100 | > 100 | > 100 | > 100 | > 100 | > 100 |  |  |  |  |  |  |  |  |  |  |  |
| Cc1ncc([N+](=O)[O-])n1CCNC(=O)CCCCCn1ccnc1[N+](=O)[O-] | > 100 | > 100 | > 100 | > 100 | > 100 | > 100 | > 100 |  | > 100 |  |  |  |  |  |  |  | > 100 |  |  |  |
| Cc1cc(O)cc2c1c(=O)c1ccccc1n2C | > 100 | > 100 | > 100 | > 100 | > 100 |  | > 100 | > 100 | > 100 |  |  |  |  |  |  |  | > 100 |  |  |  |
| CN1CCN(CCOc2ccc(-c3cnc4c(-c5ccc(F)cc5)cnn4c3)cc2)CC1 | 3.06 | 3.56 | 4.28 | 2.73 | 3.25 | 2.3 |  | 3.5 | 2.36 | 1.54 | 1.89 | 1.65 | 1.42 | 1.73 | 0.365 | 1.48 | 3.05 |  | 1.82 | 1.06 |
| COc1cc2c(cc1OC)-c1ncc3cc4c(cc3c1C2)OCO4 | 30.5 | > 100 | > 100 | > 100 | 41.7 | > 100 |  | > 100 | > 100 | 13 | 34.9 | > 100 | > 100 | 20.3 | 19 | 12.4 | 30.6 |  | 43.2 | 38.1 |
| O=C(/C(=C/c1ccccc1)c1ccccc1)N1c2ccccc2CC1c1c[nH]c2ccccc12 (configuration not stated) | > 100 | > 100 | > 100 | > 100 | > 100 | > 100 | > 100 | > 100 | > 100 |  |  |  |  |  |  |  |  |  |  |  |
| COc1ccc(/C=N/N=C(\[O-])c2ccncc2)cc1F.COc1ccc(/C=N\N=C(/[O-])c2ccncc2)cc1F.[Cu+2] | 26.5 | > 100 | 69 | > 100 | 58.2 | > 100 |  | 48 | 39 | 13.6 | 35.7 | 24.1 | 39.5 | 25.4 | 24.6 | 17.9 | 35 |  | 19.9 | 16.2 |
| N#Cc1cccc(OCc2ccccc2COc2cccc(C#N)c2)c1 | > 100 | > 100 | > 100 | 86.3 | > 100 | > 100 | 88.1 | 29.5 |  | 40.8 | > 100 | > 100 | 27.2 | 36.7 | 64.5 | 50.3 | > 100 | 29.1 | 11.8 |  |
| Cc1nnc(-c2ccc(-c3nc4ccccc4o3)cc2)o1 | > 100 | > 100 |  | > 100 | > 100 | > 100 |  | > 100 | > 100 | 25.9 | > 100 |  | > 100 | > 100 | 29.5 | 26.7 | > 100 |  | > 100 | 43.3 |
| c1ccc2nc(OCCN3CC3)ccc2c1 | 20.9 | 5.43 |  | 35.9 | 35.8 | 24 | 38.6 | 23.1 | 16.5 | 4.21 | 1.97 |  | 15 | 12.9 | 3.06 | 3.4 | 11.4 | 16.6 | 4.89 | 4.37 |
